Measured values as given in ChEMBL document CHEMBL5108052, “Histone Deacetylase and Enhancer of Zeste Homologue 2 Dual Inhibitors Presenting a Synergistic Effect for the Treatment of Hematological Malignancies” (J Med Chem, 2022).

Experiments:
[1] = target: T1, Protein deacetylase HDAC6 (Homo sapiens, UniProt Q9UBN7); test: Inhibition of full length recombinant N-terminal GST-tagged human HDAC6 (1 to 1215 residues) expressed in baculovirus infected insect cells incubated for 2 hrs by Multimode microplate reader analysis
T1 sequence (Q9UBN7 whole entry): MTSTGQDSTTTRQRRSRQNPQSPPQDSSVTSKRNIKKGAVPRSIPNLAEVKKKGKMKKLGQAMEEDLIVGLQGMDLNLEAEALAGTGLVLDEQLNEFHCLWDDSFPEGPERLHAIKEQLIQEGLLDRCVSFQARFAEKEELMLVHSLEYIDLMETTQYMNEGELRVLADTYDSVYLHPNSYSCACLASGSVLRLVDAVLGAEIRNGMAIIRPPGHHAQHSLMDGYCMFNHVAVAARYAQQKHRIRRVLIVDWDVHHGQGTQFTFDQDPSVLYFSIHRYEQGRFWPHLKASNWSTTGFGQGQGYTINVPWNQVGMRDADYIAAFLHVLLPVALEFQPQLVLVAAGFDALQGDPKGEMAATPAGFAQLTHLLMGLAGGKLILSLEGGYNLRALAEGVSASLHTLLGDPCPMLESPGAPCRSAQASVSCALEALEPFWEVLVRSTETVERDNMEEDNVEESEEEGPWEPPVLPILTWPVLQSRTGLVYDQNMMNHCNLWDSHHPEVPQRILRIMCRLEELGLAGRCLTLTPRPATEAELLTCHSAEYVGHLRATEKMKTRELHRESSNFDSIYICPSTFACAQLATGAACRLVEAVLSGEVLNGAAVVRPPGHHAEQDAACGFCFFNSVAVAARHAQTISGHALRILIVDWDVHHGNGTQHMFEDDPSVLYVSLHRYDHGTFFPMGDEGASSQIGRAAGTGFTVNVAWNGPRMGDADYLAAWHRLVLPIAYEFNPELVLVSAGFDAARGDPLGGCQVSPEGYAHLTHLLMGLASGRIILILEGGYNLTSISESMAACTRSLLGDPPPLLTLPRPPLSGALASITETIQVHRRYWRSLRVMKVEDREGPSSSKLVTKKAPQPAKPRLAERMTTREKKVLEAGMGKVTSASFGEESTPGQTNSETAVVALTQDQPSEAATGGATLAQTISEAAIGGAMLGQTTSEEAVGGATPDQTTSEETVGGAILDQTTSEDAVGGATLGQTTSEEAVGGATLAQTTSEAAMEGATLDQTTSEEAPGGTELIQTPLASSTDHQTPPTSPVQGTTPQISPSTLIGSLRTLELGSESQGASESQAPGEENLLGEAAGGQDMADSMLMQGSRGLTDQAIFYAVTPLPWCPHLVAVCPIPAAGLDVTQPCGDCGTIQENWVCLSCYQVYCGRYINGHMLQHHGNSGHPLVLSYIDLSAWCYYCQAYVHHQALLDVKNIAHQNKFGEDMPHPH

MV4-11 = test: Induction of apoptosis in human MV4-11 cells assessed as necrotic cells at 0.2 uM measured after 48 hrs by Annexin V/7-AAD-dual staining based flow cytometric analysis (reference value: 0.3 %); type: functional
[2] = Metabolic stability in human liver microsomes assessed as half life measured after 5 mins in presence of NADPH and UDPGA by LC-MS/MS analysis; type: ADME, Microsome

SMILES: Cc1cc(C)c(CNC(=O)c2cc(-c3ccc(N4CCN(c5ncc(C(=O)NO)cn5)CC4)nc3)cc3c2cnn3C(C)C)c(=O)[nH]1
- IC50 [1]: 700 nM
- Activity (MV4-11): 2%
- half-life [2]: 15.3 min
